How the values were obtained:
TsoI [1] = target: T1, TsoI (Thermus scotoductus, UniProt T1RQY5); test: DNA cleavage assay on lambda DNA, agarose gel; assay type: biochemical; details: activator, putative allosteric; weak stimulation of REase; 50 uM effector; 10 mM MgCl2, pH 7.5, 55°C, 30 min
T1 construct: gene tsoIRM; native (wt) full-length enzyme purified to homogeneity from T. scotoductus; monomer
T1 sequence (T1RQY5 1-1116): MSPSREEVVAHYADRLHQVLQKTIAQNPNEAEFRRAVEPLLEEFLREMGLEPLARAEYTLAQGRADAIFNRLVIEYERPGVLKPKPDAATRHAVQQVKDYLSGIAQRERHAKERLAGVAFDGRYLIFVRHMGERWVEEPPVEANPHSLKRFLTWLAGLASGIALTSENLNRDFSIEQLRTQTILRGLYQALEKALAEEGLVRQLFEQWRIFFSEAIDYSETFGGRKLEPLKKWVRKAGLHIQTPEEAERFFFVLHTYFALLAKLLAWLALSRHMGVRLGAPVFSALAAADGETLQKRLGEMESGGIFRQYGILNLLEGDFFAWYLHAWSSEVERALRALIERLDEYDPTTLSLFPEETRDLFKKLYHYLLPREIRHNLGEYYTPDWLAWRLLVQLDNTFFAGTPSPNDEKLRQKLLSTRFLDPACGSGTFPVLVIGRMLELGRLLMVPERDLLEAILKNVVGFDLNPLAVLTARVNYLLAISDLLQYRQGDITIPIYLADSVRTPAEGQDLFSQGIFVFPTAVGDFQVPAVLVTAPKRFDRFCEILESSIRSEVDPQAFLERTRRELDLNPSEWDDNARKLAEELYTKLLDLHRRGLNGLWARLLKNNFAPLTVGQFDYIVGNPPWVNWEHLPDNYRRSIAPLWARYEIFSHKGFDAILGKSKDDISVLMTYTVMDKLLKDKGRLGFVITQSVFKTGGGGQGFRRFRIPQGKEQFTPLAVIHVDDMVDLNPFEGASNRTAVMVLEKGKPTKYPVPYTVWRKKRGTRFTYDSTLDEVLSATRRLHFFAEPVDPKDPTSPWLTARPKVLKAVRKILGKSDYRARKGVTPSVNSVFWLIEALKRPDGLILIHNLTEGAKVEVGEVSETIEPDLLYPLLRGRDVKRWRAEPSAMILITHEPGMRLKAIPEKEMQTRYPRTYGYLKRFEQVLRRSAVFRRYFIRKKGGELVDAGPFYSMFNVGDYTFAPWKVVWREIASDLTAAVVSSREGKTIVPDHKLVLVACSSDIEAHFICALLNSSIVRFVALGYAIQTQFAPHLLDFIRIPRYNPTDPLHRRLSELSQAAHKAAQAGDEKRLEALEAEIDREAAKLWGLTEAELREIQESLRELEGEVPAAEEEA

TsoI [2] = target: T1, TsoI; test: DNA cleavage assays on lambda DNA and single-site PCR substrate, agarose gel; assay type: biochemical; details: activator, putative allosteric; weak stimulation of REase; 50 uM effector; 10 mM MgCl2, pH 7.5, 55°C, 30 min or 16 h

Structure (SMILES)	DNA cleavage assay on lambda DNA, agarose gel (TsoI [1])	DNA cleavage assays on lambda DNA and single-site PCR substrate, agarose gel (TsoI [2])
Nc1ncnc2c1ncn2[C@@H]1O[C@H](CSCC[C@H](N)C(=O)O)[C@@H](O)[C@H]1O [SAH]	activation of REase function by SAM, SIN and SAH is weak, but detectable	–
C[S+](CC[C@H](N)C(=O)O)C[C@H]1O[C@@H](n2cnc3c(N)ncnc32)[C@H](O)[C@@H]1O (stereo partly drawn) [SAM]	–	activation of REase function by SAM, SIN and SAH is weak, but detectable
Nc1ncnc2c1ncn2[C@@H]1O[C@H](C[C@@H](N)CC[C@H](N)C(=O)O)[C@@H](O)[C@H]1O [SIN]	activation of REase function by SAM, SIN and SAH is weak, but detectable	–

— article PMC3751577, “Three-stage biochemical selection: cloning of prototype class IIS/IIC/IIG restriction endonuclease-methyltransferase TsoI from the thermophile Thermus scotoductus” (BMC Molecular Biology, 2013)
